Source: US20250352553A1, “TREATMENT OF HOSPITAL-ACQUIRED BACTERIAL PNEUMONIA AND VENTILATOR-ASSOCIATED BACTERIAL PNEUMONIA CAUSED BY SUSCEPTIBLE ISOLATES OF ACINETOBACTER BAUMANNII-CALCOACETICUS COMPLEX” (Entasis Therapeutics, Inc., priority 2024, published 2025)

Assays:
[1] = tested on: Acinetobacter baumannii-calcoaceticus complex; assay type: in vivo, human; conditions: Part A, CRABC m-MITT Population
Procedure: The Phase 3 trial employed a non-inferiority design, as discussed and agreed with the FDA DAI. A Test of Cure (TOC) visit was completed 7±2 days after the last dose, and survival was assessed at Day 28.
Patients were treated with either XACDURO® (1 g sulbactam and 1 g durlobactam, or renally adjusted dose) intravenously over 3 hours every 6 hours (n=91) or colistin 2.5 mg/kg (or renally adjusted dose) intravenously over 30 minutes every 12 hours after an initial loading dose of colistin 2.5 to 5 mg/kg (n=86). Both treatment arms also received 1 g imipenem/1 g cilastatin (or renally adjusted dose) intravenously every 6 hours as background therapy for potential HABP/VABP pathogens other than Acinetobacter baumannii-calcoaceticus complex. Patients received up to 14 days of therapy.
Part A was a randomized, assessor-blinded, comparative portion of the Phase 3 trial. Patients were randomized (1:1) to 1.0 g sulbactam/1.0 g durlobactam or 2.5 mg/kg colistin. All patients in both treatment groups received 1.0 g imipenem/1.0 g cilastatin as background therapy to treat non-ABC co-infecting pathogens.
Randomization was stratified by infection type (HABP/VABP/ventilated pneumonia [VP] vs bacteremia), severity of illness, and geography.
Eligible patients were ≥18 years of age with a diagnosis of a serious infection caused by ABC as either a single pathogen or member of a polymicrobial infection confirmed by culture.
Non-inferiority was concluded if the upper limit of the 2-sided 95% CI was <20%.
Secondary efficacy endpoints for Parts A and B included: 28-day all-cause mortality in the m-MITT and ITT Populations, 14-day all-cause mortality in the CRABC m-MITT and m-MITT Populations, Clinical cure at TOC, End of Treatment (EOT), and Late Follow-Up (LFU) in the CRABC m-MITT Population, and Microbiological favorable assessment at TOC, EOT, and LFU in the CRABC m-MITT Population.

[2] = in vivo
Procedure: The modified RIFLE criteria includes: Risk (R): increased creatinine level 1.5× or glomerular filtration rate (GFR) decreased >25%, • Injury (I): increased creatinine level 2× or GFR decreased >50%, Failure (F): increased creatinine level 3×, GFR decreased >75%, or creatinine level ≥4 mg/dL, Loss (L): persistent acute renal failure or complete loss of function for >4 weeks, and End-Stage Kidney Disease (ESKD; E): ESKD for >3 months.

[3] = tested on: Acinetobacter baumannii-calcoaceticus complex; conditions: colistin-based therapy, cited from earlier work

Q: Which results are given for colistin?
A: 28-day all-cause mortality [1]: 32.3%; clinical cure rate at TOC ([1]; Test of Cure visit): 40.3%; microbiological favorable assessment at TOC ([1]; eradication and presumed eradication): 41.9%; incidence of nephrotoxicity (modified RIFLE criteria) [2]: 37.6%; mortality rate, random effects analysis ([3]; literature review, DerSimonian and Laird, 95% CI 32%, 47%): 40%; mortality rate, fixed effects analysis ([3]; literature review, 95% CI 35%, 45%): 40%; mortality rate, random effects meta-analysis updated with 4 additional studies ([3]; 95% CI 36%, 47%): 41%
